We go through four compounds from PMC9200282, “GPR15L is an epithelial inflammation-derived pruritogen” (Science Advances, 2022).

One assay concerns DRG neurons. The experiment in a line: Calcium imaging of dissociated DRG neurons expressing GCaMP6f. The assay is classed as cell-based, mouse. The following applies: chloroquine 100 μM, histamine 100 μM, capsaicin 10 μM, sequential challenge. The protocol:
Primary cultures of DRG neurons were generated from C57BL/6N mice as described previously ([65]). […] Imaging was performed with an ORCA-Flash 4.0 […] digital complementary metal-oxide semiconductor camera (Hamamatsu, Bridgewater, NJ) at 1 Hz. Fluorescence intensity in hand-drawn regions of interest was extracted using HCImage (Hamamatsu) and plotted against time. The R package […] was used to generate a heatmap plot to visualize fluorescence signals in all the neurons.

The next assay concerns Mrgpra3 DRG neurons. The experiment in a line: Whole-cell patch clamp of Mrgpra3-Cre-eGFP DRG neurons. In kind it is cell-based, mouse. The settings on record: chloroquine 100 μM, pH 7.4. (In general: The patch-clamp technique gives a direct electrical read-out from membranes.)
In the next assay the test system is mast cell. The following applies: through MRGPRs; cited from earlier work. An excerpt: In particular, MRGPRX2 and the mouse ortholog Mrgprb2 are receptors for many cationic molecules ([22]–[25]). Activation of MRGPRs on mast cells can cause immunoglobulin E–independent allergic reactions (pseudo-allergy) including extravasation, itch, and pain ([22], [26]). Some human and tick β-defensins can activate not only MRGPRX2/Mrgprb2 but also MRGPRX1/Mrgprc11, which are expressed on sensory neurons ([27]).

Experimental for Mrgpra3 DRG neurons: Whole-cell patch clamp was performed on Mrgrpa3-Cre-eGFP neurons as previously described ([67]). Briefly, DRG neurons collected from Mrgpra3-Cre-eGFP mice were cultured on coverslips for 48 to 72 hours. Whole-cell current clamp recordings were performed on dissociated DRG neurons expressing eGFP. Data were recorded with an Axon 700B amplifier and pCLAMP 11 software (Molecular Devices, Sunnyvale). Pipette electrodes were pulled with P-97 microelectrode puller (Sutter Instrument) from borosilicate glass (World Precision Instruments Inc.) with resistances of 2 to 4 megohms. The extracellular solution contained 140 mM NaCl, 4 mM KCl, 2 mM CaCl2, 1 mM MgCl2, 10 mM Hepes, and 10 mM glucose with a pH of 7.4 and an osmolality of 300 mosm/kg. The pipette solution contained 140 mM KCl, 1 mM MgCl2, 1 mM EGTA, 10 mM Hepes, 3 mM adenosine 5′-triphosphate, and 0.5 mM guanosine 5′-triphosphate with a pH of 7.4 and an osmolality of 300 mosm/kg.

On to `CCN(CC)CCCC(C)Nc1ccnc2cc(Cl)ccc12` (centres unmarked) [chloroquine], for which, in the assay on DRG neurons, the “response of Gpr15l-responsive DRG neurons to other pruritogens/capsaicin” value (“response … to other pruritogens/capsaicin” for short) is recorded as “The majority of these neurons also responded”. Further, the “neurons firing action potentials” value with Mrgpra3 DRG neurons is given as 7/8.
Take “LL-37: cationic antimicrobial peptide, cathelicidin (LLGDFFRKSKEKIGKEFKRIVQRIKDFLRNLVPRTES; Antibacterial peptide LL-37; UniProt P49913 134-170, looked up)”: in the assay with mast cell, the mast cell degranulation result is “can cause mast cell degranulation”.
Regarding `COc1cc(CNC(=O)CCCC/C=C/C(C)C)ccc1O` [capsaicin], the “response … to other pruritogens/capsaicin” value in the assay on DRG neurons is listed as “The majority of these neurons also responded”.
Take `NCCc1c[nH]cn1` [histamine]: the “response … to other pruritogens/capsaicin” value in the assay with DRG neurons is listed as “The majority of these neurons also responded”.
